For the assay, the target named is human NAMPT (Homo sapiens, UniProt P43490). As to the kind of experiment: Human recombinant enzyme assay (NMN fluorescence biochemical assay, activation of NAMPT). The method, boiled down:
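Activation of recombinant human NAMPT (6 nM) with 2.5 mM ATP, 20 μM PRPP and 150 μM nicotinamide in 50 mM HEPES pH 7.2, 1 mM DTT, 1 mM CHAPS, 50 mM NaCl, 100 mM MgCl2; 60 min, ambient temperature. NMN formed was derivatized with acetophenone/KOH/formic acid, fluorescence read at 355/460 nm after 40 min.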

Where [1] appears, read: Table A, human recombinant NAMPT, NMN formation, 60 min.
The mark [2] stands for this setting: Table A, human recombinant NAMPT, NMN formation, 60 min, read-out: EC50 Human.

A word on the EC50: it is the concentration at which the effect is half-maximal.

SMILES strings stand for the structures. Read-outs that look alike come from different tables or passages of the source.

Sequence of human NAMPT (P43490 whole entry): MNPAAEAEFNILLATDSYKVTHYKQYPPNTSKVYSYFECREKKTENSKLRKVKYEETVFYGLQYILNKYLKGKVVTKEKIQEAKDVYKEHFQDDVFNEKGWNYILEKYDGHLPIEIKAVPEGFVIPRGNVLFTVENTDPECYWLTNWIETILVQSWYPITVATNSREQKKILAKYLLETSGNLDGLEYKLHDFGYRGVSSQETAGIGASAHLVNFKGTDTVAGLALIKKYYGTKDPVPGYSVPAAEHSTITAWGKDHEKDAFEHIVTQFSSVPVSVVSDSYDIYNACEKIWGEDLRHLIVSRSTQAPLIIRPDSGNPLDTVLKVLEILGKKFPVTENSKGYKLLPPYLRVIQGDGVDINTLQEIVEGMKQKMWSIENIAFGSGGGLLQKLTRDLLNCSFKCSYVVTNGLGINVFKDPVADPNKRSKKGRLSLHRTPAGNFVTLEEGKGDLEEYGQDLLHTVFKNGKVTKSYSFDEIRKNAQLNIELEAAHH

For `COc1ccc(CNC(=O)NC2CC3(C2)CC(C(=O)N[C@@H]2CCc4ccccc42)C3)cc1` (stereo partly drawn) [Compound 91, (R)-N-(2,3-dihydro-1H-inden-1-yl)-6-(3-(4-methoxybenzyl)ureido)spiro[3.3]heptane-2-carboxamide], under setting [1], the “AC1.4 Human” value is 3.7 µM. The EC50 under setting [2] turned out to be 13 µM.
For the compound `COc1ccc(CNC(=O)NC2CC3(C2)CC(C(=O)N2CCCc4ccc(F)c(F)c42)C3)cc1` (stereo not drawn) [Compound 102], the “AC1.4 Human” value under setting [1] worked out at 8.0 µM. Besides, the EC50 under setting [2] came to 33.3 µM.
For the compound `Cc1cccc(CN(C)C(=O)CCCCCNC(=O)NCc2ccc(Cl)cc2)c1` [Compound 267, 6-(3-(4-chlorobenzyl)ureido)-N-methyl-N-(3-methylbenzyl)hexanamide], the “AC1.4 Human” value under setting [1] turned out to be 2.0 µM. The EC50 under setting [2] came out at 7.9 µM.
`Cc1ccccc1N(C)C(=O)CCCCCNC(=O)NCc1ccc(Cl)cc1` [Compound 266, 6-(3-(4-chlorobenzyl)ureido)-N-methyl-N-(o-tolyl)hexanamide]: the “AC1.4 Human” value under setting [1] worked out at 0.5 µM. Moreover, the EC50 under setting [2] stood at 1.8 µM.
The matching figures for `COc1ccc(CNC(=O)NC2CC3(CC(CN4CCCC4c4ccccc4)C3)C2)cc1` (stereo not drawn) [Compound 52, 1-(4-methoxybenzyl)-3-(6-((2-phenylpyrrolidin-1-yl)methyl)spiro[3.3]heptan-2-yl)urea]: 4.2 µM and 43.8 µM.
With `CC(C)(C)OC(=O)N1CCC(NC(=O)NCc2ccc(C(N)=O)cc2)CC1` [Compound 5, tert-butyl 4-(3-(4-carbamoylbenzyl)ureido)piperidine-1-carboxylate], the EC50 under setting [2] stood at 48.6 µM.
In the case of `COc1ccc(CNC(=O)NC2CC3(C2)CC(C(=O)NCc2cccnc2)C3)cc1` (stereo not drawn) [Compound 49, 6-(3-(4-methoxybenzyl)ureido)-N-(pyridin-3-ylmethyl)spiro[3.3]heptane-2-carboxamide], the “AC1.4 Human” value under setting [1] stood at 6.6 µM. Further, under setting [2], the EC50 stood at 46.8 µM.
Regarding `COc1ccc(CNC(=O)NC2CC3(C2)CC(C(=O)N(C)Cc2ccccc2)C3)cc1` (stereo not drawn) [Compound 51, N-benzyl-6-(3-(4-methoxybenzyl)ureido)-N-methylspiro[3.3]heptane-2-carboxamide], under setting [1], the “AC1.4 Human” value was 1.5 µM. The concentration giving a half-maximal response (EC50) under setting [2] worked out at 53.1 µM.
For `COc1ccc(CNC(=O)NC2CC3(C2)CN(C(=O)CCc2ccccc2Cl)C3)cc1` [Compound 135, 1-(2-(3-(2-chlorophenyl)propanoyl)-2-azaspiro[3.3]heptan-6-yl)-3-(4-methoxybenzyl) urea], the concentration for a half-maximal effect (EC50) came out at 38.5 µM. The “AC1.4 Human” value under setting [1] amounted to 3.7 µM.
In the case of `O=C(NCc1ccc(Cl)cc1)NC1CC2(CC(Cn3nncc3-c3ccccc3)C2)C1` (stereo not drawn) [Compound 242, 1-(4-chlorobenzyl)-3-(6-((5-phenyl-1H-1,2,3-triazol-1-yl)methyl)spiro[3.3]heptan-2-yl)urea], the “AC1.4 Human” value under setting [1] was 3.6 µM. Also, the EC50 under setting [2] amounted to 0.8 µM.
On to `COC(=O)[C@H]1C[C@@]2(C[C@H](NC(=O)NCc3ccc(Cl)cc3)C2)C1` (single isomer, unassigned) [Compound 201, methyl 6-(3-(4-chlorobenzyl)ureido)spiro[3.3]heptane-2-carboxylate], for which the EC50 was 22.2 µM. Moreover, under setting [1], the “AC1.4 Human” value came to 6.7 µM.
Take `Cc1ccc(C(=O)N2CC3(CC(NC(=O)NCc4cocn4)C3)C2)cc1` [Compound 228, 1-(2-(4-methylbenzoyl)-2-azaspiro[3.3]heptan-6-yl)-3-(oxazol-4-ylmethyl)urea]: the “AC1.4 Human” value under setting [1] came to 1.9 µM. Also, the EC50 under setting [2] worked out at 39.2 µM.
In the same order, the values of `CN(C(=O)CCCCCNC(=O)NCc1ccc(Cl)cc1)c1cccnc1` [Compound 270, 6-(3-(4-chlorobenzyl)ureido)-N-methyl-N-(pyridin-3-yl)hexanamide] are 1.1 µM and 3.9 µM.
As for `CC1CCN(CC2CC3(C2)CC(NC(=O)NCc2ccc(Cl)cc2)C3)C1=O` (stereo not drawn) [Compound 244, 1-(4-chlorobenzyl)-3-(6-((3-methyl-2-oxopyrrolidin-1-yl)methyl)spiro[3.3]heptan-2-yl)urea], the “AC1.4 Human” value under setting [1] was 3.4 µM. The EC50 under setting [2] was 7.3 µM.

The values are drawn from patent US20230348369A1 (Cytokinetics, Inc., priority 2020, published 2023).
